Laboratory results from patent publication US10335400B2, “Treatment of tauopathies with mGluR5 antagonists” (priority 2014, dated 2019).

How the values were obtained:
[1] = system: tau; experiment: i.c.v. infusion of BMAA in neonatal rats: hyperphosphorylation of tau; assay type: in vivo, rat; conditions: i.c.v. BMAA 1.3 μmol
Experimental: Wistar rats were bred and maintained under standard environmental conditions (12-h light/dark cycles, 22° C.) and were allowed free access to food and water. The animal experiments were carried out in strict compliance with protocols approved by the Animal Welfare Committee of New York State Institute for Basic Research in Developmental Disabilities. On postnatal d 2 (PND2), pups were individually cryo-anesthetized on ice, and 2 μL of 1.3 μmol BMAA in PBS was injected into lateral ventricle using a 10-μL Hamilton syringe (Hamilton Syringe Co.). Control animals were injected with PBS in an identical manner. After infusion of BMAA, rats were killed within 1, 24, 48, 72, or 96 h, and the brains were used for Western blots and PP2A activity assays.
Protein was fractionated by 10% SDS/PAGE, transferred to PVDF membrane, and then blocked with 5% skim milk for 1 h at room temperature. The membrane was probed with anti-IPP2A (5G6, 1:1, 500) (7), anti-I2P2A (10E7, 1:1, 600) (7), anti-tau ˜92e; 1:5,000) (8), anti-tau (R134d; 1:5 000) (9), anti-tau pSer^262/^356 (12E8; 1:500) (10, anti-tau pSer^199, anti-tau pThr^205, anti-tau pThr^212, and pSer^396 (1:1,000) (Biosource), anti-GAPDH (1:2,000) (Santa Cruz Biotechnology), anti-PP2Ac (1:10 000) (BD Transduction Lab), anti pY^307-PP2A and anti-DML^309-PP2A (1:1,000) (Millipore), anti-GSK-3(α/β), anti-pS^9-GSK-3 β, anti-ERK1/2, anti-pT^202/Y^204-ERK1/2, anti-MEK1/2, anti-p9^17/221-MEK1/2, anti-CAMKII, anti-pT^286-CAMKII, anti-p70 S6 kinase, anti-pT^389-p70 S6 kinase, anti-SAPK/JNK, and anti-pT^183/Y^185-SAPK/JNK (1:1,000) (Cell Signaling Technology). The membrane then was incubated with HRP-conjugated secondary antibody (Jackson ImmunoResearch). The protein bands were detected with the enhanced chemiluminescence reagents (Thermo Scientific). Band intensity was measured by Multi-Gauge V3 software (Fuji Photo Film).

[2] = system: PP2A; experiment: PP2A activity (phosphatase ELISA) in rat brain slices; assay type: cell-based; conditions: brain slices incubated with BMAA 1 mM for 2 h in artificial cerebrospinal fluid
Experimental: Male Wistar rats (Charles River Laboratories), 2-3 months old, were anesthetized by i.p. injection with 50 mg/kg Nembutal. The animals were decapitated when deeply anesthetized. The brains were removed immediately and cooled in ice-cold (4° C.) oxygenated artificial cerebrospinal fluid (aCSF) consisting of 126 mM NaCl, 3.5 mM KCl, 1.2 mM NaH2PO4, 1.3 mM MgCl2, 2 mM CaCl2, 11 mM D(+) glucose, and 25 mM NaHCO3 (pH 7.4) for 7-8 min. Each brain then was divided sagittally, and 400-μm-thick coronal slices were made with a Camden Vibraslicer (WP, Inc.). The slices were transferred into a chamber containing the oxygenated aCSF and were incubated at 33° C. for 2 h in the presence or absence of 1 mM, β-N ? methylamino-L-alanine (BMAA) dissolved in 10 mM NaHCO3 (Sigma). The oxygenation of the aCSF was carried out by bubbling the solution with a mixture of 95% O2 and 5% CO2 during the entire procedure. At the end of incubation, the brain slices were homogenized with homogenizing buffer [50 mM Tris·HCl (pH 7.4), 8.5% (wt/vol) sucrose, 2 mM EDTA, 2 mM EGTA, 10 mM (3-mercaptoethanol, 5 mM benzamidine, 0.5 mM 4-(2-Aminoethyl) benzenesulfonyl fluoride hydrochloride (AEBSF), 4 μg/mL pepstatin A, and 10 μg/mL each of aprotinin and leupepin] at a ratio of 9.0 mL buffer/1.0 g tissue slices. The homogenates were divided into two parts. One part was centrifuged at 16,000×g for 10 min, and the resulting supernatant was used to assay protein phosphatase 2A (PP2A) activity. Into the other half, an equal volume of phosphatase-inhibitor mixture (20 mM 3-glycerophosphate, 2 mM Na3VO4, and 100 mM NaF) was added immediately, and the samples were used for Western blots.

Compound: CNC[C@H](N)C(=O)O [BMAA, β-N-methylamino-L-alanine]
- time of peak hyperphosphorylation of tau at Ser262/356 [1]: 24 to 48 h
- time of peak hyperphosphorylation of tau at Thr212 [1]: 24 to 48 h
- time of peak phosphorylation of tau at Ser199 [1]: 72 to 96 h
- time of peak phosphorylation of tau at Ser396 [1]: 72 to 96 h
- time of peak phosphorylation of tau at Thr205 [1]: 72 to 96 h
- PP2A activity [2]: significant inhibition
